Experimental data published in patent publication US9090628B2, “Benzoxazepin compounds selective for PI3K P110 delta and methods of use” (GENENTECH, INC., priority 2011, dated 2015).

Columns and labels:
p110 delta = p110 delta (Homo sapiens (Human), UniProt O00329); test: PI3K isoform inhibition assay, p110 delta (fluorescence polarization displacement); format: biochemical
Description: (§1) PI3K enzymatic activity was assayed by measuring the amount of product phosphatidylinositol 3,4,5-phosphate (PIP3) formed from substrate 4,5 phosphatidylinositol 4,5-phosphate (PIP2) using a fluorescence polarization displacement assay. The decrease in fluorescence polarization of a fluorescent PIP3 probe is measured as it is displaced from a PIP3-binding protein GRP-1 detector by PI3K-catalyzed product. […] The kinase reactions were initiated by the addition of 40 ng/mL p110α/p85α, 300 ng/mL p110β/p85α, 40 ng/mL p110γ, or 40 ng/mL p110δ/p85α (Upstate Group, Millipore; Dundee, UK), and 10 μM PIP2 (Echelon Biosciences) to the wells. […] After 60 minutes of incubation at room temperature to allow equilibration of labeled and unlabeled PIP3 binding, the parallel and perpendicular components of the fluorescence emissions from each sample were measured at an excitation wavelength of 530 nm and an emission wavelength of 590 nm using an Envision fluorescent plate reader with a rhodamine filter (PerkinElmer Life and Analytical Sciences; Wellesley, Mass.). The assay is capable of detecting 0.1-2.0 μM PIP3 product. The IC50 values were obtained by fitting the dose-dependent inhibition data to a 4-parameter equation using Assay Explorer software (MDL, San Ramon, Calif.).
The Formula I compound was serially diluted in 100% DMSO. The kinase reaction was incubated for 1 h at room temperature, and the reaction was terminated by the addition of PBS. IC50 values were subsequently determined using sigmoidal dose-response curve fit (variable slope).
(§2) The four Class I PI 3-kinases are cloned into baculovirus vectors as follows: […]

p110 alpha = p110 alpha (Homo sapiens (Human), UniProt P42336); test: PI3K isoform inhibition assay, p110 alpha (for alpha/delta selectivity); conditions: ratio of biochemical IC50 values
p110 alpha, sequence (P42336 whole entry, canonical isoform): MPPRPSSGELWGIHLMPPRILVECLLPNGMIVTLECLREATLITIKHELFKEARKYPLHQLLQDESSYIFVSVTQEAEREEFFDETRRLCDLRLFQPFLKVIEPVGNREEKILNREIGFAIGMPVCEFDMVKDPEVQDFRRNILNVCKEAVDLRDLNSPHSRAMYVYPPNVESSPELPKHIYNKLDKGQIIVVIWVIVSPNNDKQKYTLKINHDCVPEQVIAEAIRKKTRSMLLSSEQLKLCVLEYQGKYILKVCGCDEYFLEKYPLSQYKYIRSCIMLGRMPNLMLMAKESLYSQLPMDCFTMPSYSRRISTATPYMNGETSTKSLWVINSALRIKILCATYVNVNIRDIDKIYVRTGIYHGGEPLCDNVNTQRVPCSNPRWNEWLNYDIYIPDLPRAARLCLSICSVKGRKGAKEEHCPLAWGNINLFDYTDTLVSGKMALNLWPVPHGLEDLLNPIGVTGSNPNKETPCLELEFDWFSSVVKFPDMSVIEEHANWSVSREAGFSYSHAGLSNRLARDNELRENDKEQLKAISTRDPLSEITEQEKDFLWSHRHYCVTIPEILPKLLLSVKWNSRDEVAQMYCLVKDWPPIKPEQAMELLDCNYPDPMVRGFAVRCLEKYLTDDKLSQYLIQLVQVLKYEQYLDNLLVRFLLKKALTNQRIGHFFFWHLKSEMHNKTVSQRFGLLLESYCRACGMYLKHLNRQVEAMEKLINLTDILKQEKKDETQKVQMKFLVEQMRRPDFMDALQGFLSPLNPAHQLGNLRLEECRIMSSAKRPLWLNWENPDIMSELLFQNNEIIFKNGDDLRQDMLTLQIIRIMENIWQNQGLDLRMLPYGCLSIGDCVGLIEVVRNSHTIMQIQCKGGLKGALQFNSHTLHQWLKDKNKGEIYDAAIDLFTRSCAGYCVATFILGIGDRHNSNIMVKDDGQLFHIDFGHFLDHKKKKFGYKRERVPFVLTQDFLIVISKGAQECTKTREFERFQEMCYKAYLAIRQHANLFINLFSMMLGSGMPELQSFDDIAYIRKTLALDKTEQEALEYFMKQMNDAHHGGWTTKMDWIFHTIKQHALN
p110 alpha, sequence (P27986 whole entry partner, canonical isoform): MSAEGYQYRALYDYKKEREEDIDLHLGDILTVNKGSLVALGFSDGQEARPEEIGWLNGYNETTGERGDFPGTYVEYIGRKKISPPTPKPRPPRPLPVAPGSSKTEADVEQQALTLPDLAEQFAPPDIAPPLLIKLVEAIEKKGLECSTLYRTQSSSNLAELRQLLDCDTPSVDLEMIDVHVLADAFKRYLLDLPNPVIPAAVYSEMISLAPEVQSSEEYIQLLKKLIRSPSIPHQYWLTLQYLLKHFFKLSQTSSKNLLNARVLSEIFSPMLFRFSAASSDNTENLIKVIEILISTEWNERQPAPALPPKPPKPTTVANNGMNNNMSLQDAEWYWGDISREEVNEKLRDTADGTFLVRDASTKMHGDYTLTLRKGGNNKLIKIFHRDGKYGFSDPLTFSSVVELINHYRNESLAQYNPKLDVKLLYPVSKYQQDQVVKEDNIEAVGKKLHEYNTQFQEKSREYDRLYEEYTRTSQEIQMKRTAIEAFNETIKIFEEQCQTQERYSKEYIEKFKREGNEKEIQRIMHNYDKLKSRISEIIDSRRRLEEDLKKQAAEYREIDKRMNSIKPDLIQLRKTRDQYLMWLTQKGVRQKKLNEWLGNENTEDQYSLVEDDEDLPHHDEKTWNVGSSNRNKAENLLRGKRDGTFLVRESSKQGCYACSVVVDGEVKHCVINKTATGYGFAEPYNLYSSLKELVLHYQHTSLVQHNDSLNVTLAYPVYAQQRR
Description: as §1
The same protocol may be used to establish IC50 values for p110α (alpha) PI3K binding.
as §2

p110 delta, sequence (O00329 whole entry, canonical isoform): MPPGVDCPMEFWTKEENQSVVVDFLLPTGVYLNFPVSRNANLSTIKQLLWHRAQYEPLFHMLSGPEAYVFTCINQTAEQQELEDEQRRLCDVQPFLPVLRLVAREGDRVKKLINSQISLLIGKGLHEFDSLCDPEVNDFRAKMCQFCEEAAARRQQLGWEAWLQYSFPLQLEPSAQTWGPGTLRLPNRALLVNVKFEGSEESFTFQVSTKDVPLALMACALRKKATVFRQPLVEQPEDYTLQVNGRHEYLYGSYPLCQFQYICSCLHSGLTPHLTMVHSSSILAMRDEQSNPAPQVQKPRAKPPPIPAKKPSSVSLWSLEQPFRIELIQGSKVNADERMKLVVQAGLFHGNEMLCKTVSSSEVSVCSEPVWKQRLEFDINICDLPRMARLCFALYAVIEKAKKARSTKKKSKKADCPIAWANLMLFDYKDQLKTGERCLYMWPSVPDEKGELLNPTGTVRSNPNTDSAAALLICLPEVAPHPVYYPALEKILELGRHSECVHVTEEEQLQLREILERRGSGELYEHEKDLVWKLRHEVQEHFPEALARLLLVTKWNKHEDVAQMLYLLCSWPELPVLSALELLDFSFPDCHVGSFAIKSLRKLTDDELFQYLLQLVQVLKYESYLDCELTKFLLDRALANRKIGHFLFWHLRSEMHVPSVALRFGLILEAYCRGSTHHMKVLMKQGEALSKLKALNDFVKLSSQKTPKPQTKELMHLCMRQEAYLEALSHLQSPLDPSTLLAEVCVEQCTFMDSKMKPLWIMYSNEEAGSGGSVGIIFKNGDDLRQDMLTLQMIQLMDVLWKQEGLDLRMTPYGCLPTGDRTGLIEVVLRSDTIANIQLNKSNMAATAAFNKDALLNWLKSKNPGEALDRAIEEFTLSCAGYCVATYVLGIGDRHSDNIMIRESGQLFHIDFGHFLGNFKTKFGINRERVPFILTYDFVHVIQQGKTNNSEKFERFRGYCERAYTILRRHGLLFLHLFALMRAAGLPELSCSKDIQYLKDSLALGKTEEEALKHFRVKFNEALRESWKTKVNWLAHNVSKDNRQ
p110 delta, sequence (P27986 whole entry partner, canonical isoform): as the sequence (P27986 whole entry partner, canonical isoform) above

IC50 (p110 delta) [nM]	IC50 p110 alpha/IC50 p110 delta (p110 alpha)	Compound
2.63	83.2	Cc1nc(-c2cn3c(n2)-c2cc([C@@H](C)N4CCN(C(C)(C)CO)CC4)ncc2OCC3)n(C(C)C)n1 [Example 365, (R)-2-(4-(1-(2-(1-isopropyl-3-methyl-1H-1,2,4-triazol-5-yl)-5,6-dihydroimidazo[1,2-d]pyrido[4,3-f][1,4]oxazepin-10-yl)ethyl)piperazin-1-yl)-2-methylpropan-1-ol]
11.5	18	Cc1nc(-c2cn3c(n2)-c2cc(-c4ccnn4[C@H]4CCCN(C5COC5)C4)c(F)cc2OCC3)n(C(C)C)n1 [Example 352, (S)-9-fluoro-2-(1-isopropyl-3-methyl-1H-1,2,4-triazol-5-yl)-10-(1-(1-(oxetan-3-yl)piperidin-3-yl)-1H-pyrazol-5-yl)-5,6-dihydrobenzo[f]imidazo[1,2-d][1,4]oxazepine]
2.73	69.9	Cc1nc(-c2cn3c(n2)-c2cc(C(=O)N4CCN(C(C)(C)C)CC4)c(F)cc2OCC3)n(C(C)C)n1 [Example 273, (4-tert-butylpiperazin-1-yl)-[9-fluoro-2-(2-isopropyl-5-methyl-1,2,4-triazol-3-yl)-5,6-dihydroimidazo[1,2-d][1,4]benzoxazepin-10-yl]methanone]
0.37	54.1	Cc1nc(-c2cn3c(n2)-c2cc(-c4cnn(C)c4C4CCCN(C(C)C)C4)c(F)cc2OCC3)n(C(C)C)n1 (centres unmarked) [Example 359, 9-fluoro-2-(2-isopropyl-5-methyl-1,2,4-triazol-3-yl)-10-[5-(1-isopropyl-3-piperidyl)-1-methyl-pyrazol-4-yl]-5,6-dihydroimidazo[1,2-d][1,4]benzoxazepine]
0.311	24	Cc1nc(-c2cn3c(n2)-c2ccc(-c4cn[nH]c4C4CCCN(C(C)C)C4)cc2OCC3)n(C(C)C)n1 (centres unmarked) [Example 360, 2-(2-isopropyl-5-methyl-1,2,4-triazol-3-yl)-9-[5-(1-isopropyl-3-piperidyl)-1H-pyrazol-4-yl]-5,6-dihydroimidazo[1,2-d][1,4]benzoxazepine]
1.23	66	Cc1nc(-c2cn3c(n2)-c2ccc(-c4cnn(C)c4C4CC(N(C)C(C)C)CCO4)cc2OCC3)n(C(C)C)n1 (centres unmarked) [Example 344, N-isopropyl-2-[4-[2-(2-isopropyl-5-methyl-1,2,4-triazol-3-yl)-5,6-dihydroimidazo[1,2-d][1,4]benzoxazepin-9-yl]-2-methyl-pyrazol-3-yl]-N-methyl-tetrahydropyran-4-amine]
< 0.035	214	Cc1nc(-c2cn3c(n2)-c2cc(-c4ccnn4[C@H]4CCCN(C(C)C)C4)c(F)cc2OCC3)n(C(C)C)n1 [Example 316, (S)-9-fluoro-2-(1-isopropyl-3-methyl-1H-1,2,4-triazol-5-yl)-10-(1-(1-isopropylpiperidin-3-yl)-1H-pyrazol-5-yl)-5,6-dihydrobenzo[f]imidazo[1,2-d][1,4]oxazepine]
5.53	47.5	Cc1nc(-c2cn3c(n2)-c2cc([C@@H](C)N4CCN(C(C)(C)CO)CC4)c(F)cc2OCC3)n(C(C)C)n1 [Example 347, (R)-2-(4-(1-(9-fluoro-2-(1-isopropyl-3-methyl-1H-1,2,4-triazol-5-yl)-5,6-dihydrobenzo[f]imidazo[1,2-d][1,4]oxazepin-10-yl)ethyl)piperazin-1-yl)-2-methylpropan-1-ol]
2.21	16.6	Cc1nc(-c2cn3c(n2)-c2cc(-c4ccnn4[C@@H]4CCCN(C5COC5)C4)c(F)cc2OCC3)n(C(C)C)n1 [Example 351, (R)-9-fluoro-2-(1-isopropyl-3-methyl-1H-1,2,4-triazol-5-yl)-10-(1-(1-(oxetan-3-yl)piperidin-3-yl)-1H-pyrazol-5-yl)-5,6-dihydrobenzo[f]imidazo[1,2-d][1,4]oxazepine]
8.82	14.3	Cc1nc(-c2cn3c(n2)-c2cc(C(C)N4CCN(C5COC5)CC4)c(C)cc2OCC3)n(C(C)C)n1 (centres unmarked) [Example 345, 2-(2-isopropyl-5-methyl-1,2,4-triazol-3-yl)-9-methyl-10-[1-[4-(oxetan-3-yl)piperazin-1-yl]ethyl]-5,6-dihydroimidazo[1,2-d][1,4]benzoxazepine]
8.53	21.8	Cc1nc(-c2cn3c(n2)-c2ccc(-c4ccnn4C4CCCN(Cc5ccccc5)C4)cc2OCC3)n(C(C)C)n1 (centres unmarked) [Example 262, 9-(1-(1-benzylpiperidin-3-yl)-1H-pyrazol-5-yl)-2-(1-isopropyl-3-methyl-1H-1,2,4-triazol-5-yl)-5,6-dihydrobenzo[f]imidazo[1,2-d][1,4]oxazepine]
4.85	17.9	CCN1CCN(C(C)c2cc3c(cc2F)OCCn2cc(-c4nc(C)nn4C(C)C)nc2-3)CC1 (centres unmarked) [Example 374, 10-[1-(4-ethylpiperazin-1-yl)ethyl]-9-fluoro-2-(2-isopropyl-5-methyl-1,2,4-triazol-3-yl)-5,6-dihydroimidazo[1,2-d][1,4]benzoxazepine]
0.313	20.2	Cc1nc(-c2cn3c(n2)-c2ccc(N4CCC[C@H]4CN4CCCC4)cc2OCC3)n(C(C)C)n1 [Example 325, (S)-2-(1-isopropyl-3-methyl-1H-1,2,4-triazol-5-yl)-9-(2-(pyrrolidin-1-ylmethyl)pyrrolidin-1-yl)-5,6-dihydrobenzo[f]imidazo[1,2-d][1,4]oxazepine]
17.3	10	Cc1cc2c(cc1-c1ccnn1C1CCN(C)CC1)OCCn1cc(-c3ncnn3C(C)C)nc1-2 [Example 264, 2-(1-isopropyl-1H-1,2,4-triazol-5-yl)-10-methyl-9-(1-(1-methylpiperidin-4-yl)-1H-pyrazol-5-yl)-5,6-dihydrobenzo[f]imidazo[1,2-d][1,4]oxazepine]
1.39	31.9	Cc1nc(-c2cn3c(n2)-c2ccc(-c4ccnn4C4CCCN(C5(C)COC5)C4)cc2OCC3)n(C(C)C)n1 (centres unmarked) [Example 285, 2-(2-isopropyl-5-methyl-1,2,4-triazol-3-yl)-9-[2-[1-(3-methyloxetan-3-yl)-3-piperidyl]pyrazol-3-yl]-5,6-dihydroimidazo[1,2-d][1,4]benzoxazepine]
6.2	17	Cc1nc(-c2cn3c(n2)-c2ccc(OC4(c5ccccc5)CN(C(C)C)C4)cc2OCC3)n(C(C)C)n1 [Example 275, 2-(2-isopropyl-5-methyl-1,2,4-triazol-3-yl)-9-(1-isopropyl-3-phenyl-azetidin-3-yl)oxy-5,6-dihydroimidazo[1,2-d][1,4]benzoxazepine]
1.48	114	Cc1nc(-c2cn3c(n2)-c2cc([C@@H](C)N4CCN(C(C)C)CC4)c(F)cc2OCC3)n(C(C)C)n1 [Example 338, (R)-9-fluoro-2-(1-isopropyl-3-methyl-1H-1,2,4-triazol-5-yl)-10-(1-(4-isopropylpiperazin-1-yl)ethyl)-5,6-dihydrobenzo[f]imidazo[1,2-d][1,4]oxazepine]
8.67	32.1	Cc1nc(-c2cn3c(n2)-c2ccc(OC4(CC(C)C)CN(C(C)C)C4)cc2OCC3)n(C(C)C)n1 [Example 301, 9-(3-isobutyl-1-isopropyl-azetidin-3-yl)oxy-2-(2-isopropyl-5-methyl-1,2,4-triazol-3-yl)-5,6-dihydroimidazo[1,2-d][1,4]benzoxazepine]

Compound	IC50 (p110 delta) [nM]	IC50 p110 alpha/IC50 p110 delta (p110 alpha)
CC(C)n1ncnc1-c1cn2c(n1)-c1cc([S+]([O-])C3CCN(C(C)(C)C)CC3)ccc1OCC2 (centres unmarked) [Example 270, 10-(1-tert-butylpiperidin-4-ylsulfinyl)-2-(1-isopropyl-1H-1,2,4-triazol-5-yl)-5,6-dihydrobenzo[f]imidazo[1,2-d][1,4]oxazepine]	0.811	184
Cc1nc(-c2cn3c(n2)-c2cc(C(C)N4CCN(C(C)(C)C)CC4)c(F)cc2OCC3)n(C(C)C)n1 (centres unmarked) [Example 328, 10-[1-(4-tert-butylpiperazin-1-yl)ethyl]-9-fluoro-2-(2-isopropyl-5-methyl-1,2,4-triazol-3-yl)-5,6-dihydroimidazo[1,2-d][1,4]benzoxazepine]	2.29	109
Cc1nc(-c2cn3c(n2)-c2cc([C@@H](C)N4CCN(C(C)(C)C)CC4)c(F)cc2OCC3)n(C(C)C)n1 [Example 294, (R)-10-(1-(4-tert-butylpiperazin-1-yl)ethyl)-9-fluoro-2-(1-isopropyl-3-methyl-1H-1,2,4-triazol-5-yl)-5,6-dihydrobenzo[f]imidazo[1,2-d][1,4]oxazepine]	0.777	479
Cc1nc(-c2cn3c(n2)-c2cc([C@@H](C)N4CCN(C(C)(C)C)CC4)ncc2OCC3)n(C(C)C)n1 [Example 305, (R)-10-(1-(4-tert-butylpiperazin-1-yl)ethyl)-2-(1-isopropyl-3-methyl-1H-1,2,4-triazol-5-yl)-5,6-dihydroimidazo[1,2-d]pyrido[4,3-f][1,4]oxazepine]	2.81	28.6
